Source: ChEMBL document CHEMBL1201862, “PubChem BioAssay data set” (2004)
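Dose response: 5 concentrations. Exposure: 48 h. Format: 96-well plates. Endpoint: linear interpolation; highest concentration if not reached. Abbreviation: GI50, concentration required for 50% inhibition of growth.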 Activity calls are given as the source filed them. Cut-off read from the data, not from the text of the source: active = GI50 up to about 1.1 µM and inactive = higher.

What was measured:
Assay in all cases: growth of human tumour cells (NCI), 48 h
HOP-92 = system: HOP-92
SN12C = system: SN12C
NCI-H23 = system: NCI-H23
KM12 = system: KM12
SNB-19 = system: SNB-19
T47D = system: T47D
SK-MEL-2 = system: SK-MEL-2
A498 = system: A498
PC-3 = system: PC-3
SW-620 = system: SW-620
U-251 = system: U-251
HCT-116 = system: HCT-116
SNB-75 = system: SNB-75
LOX IMVI = system: LOX IMVI
OVCAR-8 = system: OVCAR-8
SK-MEL-5 = system: SK-MEL-5
Malme-3M = system: Malme-3M
HT-29 = system: HT-29
NCI-H522 = system: NCI-H522
DU-145 = system: DU-145
UO-31 = system: UO-31
COLO 205 = system: COLO 205
BT-549 = system: BT-549
SK-OV-3 = system: SK-OV-3
M14 = system: M14
SF-268 = system: SF-268
TK-10 = system: TK-10
SF-539 = system: SF-539
SF-295 = system: SF-295
MDA-N = system: MDA-N
CCRF-CEM = system: CCRF-CEM
EKVX = system: EKVX
UACC-257 = system: UACC-257
MOLT-4 = system: MOLT-4
786-0 = system: 786-0
MCF7 = system: MCF7
NCI-H460 = system: NCI-H460
NCI/ADR-RES = system: NCI/ADR-RES
CAKI-1 = system: CAKI-1
Hs-578T = system: Hs-578T
RXF 393 = system: RXF 393
ACHN = system: ACHN
NCI-H226 = system: NCI-H226
HCC 2998 = system: HCC 2998
HOP-62 = system: HOP-62
OVCAR-3 = system: OVCAR-3
MDA-MB-435 = system: MDA-MB-435
OVCAR-5 = system: OVCAR-5
HCT-15 = system: HCT-15
K562 = system: K562
MDA-MB-231 = system: MDA-MB-231
SR = system: SR
OVCAR-4 = system: OVCAR-4
UACC-62 = system: UACC-62
A549 = system: A549
HL-60 = system: HL-60
RPMI-8226 = system: RPMI-8226
IGROV-1 = system: IGROV-1
SK-MEL-28 = system: SK-MEL-28

Q: Which results are given for `CCCCc1ccc(Nc2nc3c(ncn3COCCBr)c(=O)[nH]2)cc1`?
A: GI50 (HOP-92): > 100 µM (inactive); GI50 (SN12C): > 100 µM (inactive); GI50 (NCI-H23): > 100 µM (inactive); GI50 (KM12): > 100 µM (inactive); GI50 (SNB-19): > 100 µM (inactive); GI50 (T47D): 40.1 µM (inactive); GI50 (SK-MEL-2): > 100 µM (inactive); GI50 (A498): > 100 µM (inactive); GI50 (PC-3): > 100 µM (inactive); GI50 (SW-620): > 100 µM (inactive); GI50 (U-251): > 100 µM (inactive); GI50 (HCT-116): > 100 µM (inactive); GI50 (SNB-75): > 100 µM (inactive); GI50 (LOX IMVI): > 100 µM (inactive); GI50 (OVCAR-8): > 100 µM (inactive); GI50 (SK-MEL-5): > 100 µM (inactive); GI50 (Malme-3M): > 100 µM (inactive); GI50 (HT-29): > 100 µM (inactive); GI50 (NCI-H522): > 100 µM (inactive); GI50 (DU-145): > 100 µM (inactive); GI50 (UO-31): > 100 µM (inactive); GI50 (COLO 205): > 100 µM (inactive); GI50 (BT-549): > 100 µM (inactive); GI50 (SK-OV-3): > 100 µM (inactive); GI50 (M14): > 100 µM (inactive); GI50 (SF-268): > 100 µM (inactive); GI50 (TK-10): > 100 µM (inactive); GI50 (SF-539): > 100 µM (inactive); GI50 (SF-295): > 100 µM (inactive); GI50 (MDA-N): > 100 µM (inactive); GI50 (CCRF-CEM): > 100 µM (inactive); GI50 (EKVX): > 100 µM (inactive); GI50 (UACC-257): > 100 µM (inactive); GI50 (MOLT-4): > 100 µM (inactive); GI50 (786-0): > 100 µM (inactive); GI50 (MCF7): > 100 µM (inactive); GI50 (NCI-H460): > 100 µM (inactive); GI50 (NCI/ADR-RES): > 100 µM (inactive); GI50 (CAKI-1): > 100 µM (inactive); GI50 (Hs-578T): > 100 µM (inactive); GI50 (RXF 393): 84.5 µM (inactive); GI50 (ACHN): > 100 µM (inactive); GI50 (NCI-H226): > 100 µM (inactive); GI50 (HCC 2998): > 100 µM (inactive); GI50 (HOP-62): > 100 µM (inactive); GI50 (OVCAR-3): > 100 µM (inactive); GI50 (MDA-MB-435): > 100 µM (inactive); GI50 (OVCAR-5): > 100 µM (inactive); GI50 (HCT-15): > 100 µM; GI50 (K562): > 100 µM (inactive); GI50 (MDA-MB-231): > 100 µM (inactive); GI50 (SR): 86.3 µM (inactive); GI50 (OVCAR-4): > 100 µM (inactive); GI50 (UACC-62): > 100 µM (inactive); GI50 (A549): > 100 µM (inactive); GI50 (HL-60): > 100 µM (inactive); GI50 (RPMI-8226): > 100 µM (inactive); GI50 (IGROV-1): > 100 µM (inactive)

Q: `CCCCCCCCCCCCCCCCCCNc1ccn(C2OC(CO)C(O)C2O)c(=O)n1` (configuration not stated) was tested. Which GI50 (HOP-92) did it give?
A: > 100 µM (inactive)

Q: What about the GI50 (SN12C) of the same molecule?
A: > 100 µM (inactive)

Q: What about the GI50 (NCI-H23) of the same molecule?
A: > 100 µM (inactive)

Q: And the GI50 (KM12)?
A: 84.1 µM (inactive)

Q: And the GI50 (SNB-19)?
A: > 25.4 µM (inactive)

Q: What about the GI50 (T47D) of the same molecule?
A: > 40.7 µM (inactive)

Q: What about the GI50 (SK-MEL-2) of the same molecule?
A: > 100 µM (inactive)

Q: What about the GI50 (A498) of the same molecule?
A: > 100 µM (inactive)

Q: What about the GI50 (PC-3) of the same molecule?
A: 2.45 µM (inactive)

Q: What about the GI50 (SW-620) of the same molecule?
A: > 100 µM (inactive)

Q: And the GI50 (U-251)?
A: 38.6 µM (inactive)

Q: And the GI50 (HCT-116)?
A: > 100 µM (inactive)

Q: And the GI50 (SK-MEL-28)?
A: > 100 µM (inactive)

Q: What about the GI50 (SNB-75) of the same molecule?
A: 29.9 µM (inactive)

Q: What about the GI50 (LOX IMVI) of the same molecule?
A: > 62.8 µM (inactive)

Q: What about the GI50 (OVCAR-8) of the same molecule?
A: > 100 µM (inactive)

Q: And the GI50 (SK-MEL-5)?
A: > 100 µM (inactive)

Q: What about the GI50 (Malme-3M) of the same molecule?
A: > 100 µM (inactive)

Q: And the GI50 (HT-29)?
A: > 95.5 µM (inactive)

Q: What about the GI50 (NCI-H522) of the same molecule?
A: 19.8 µM (inactive)

Q: What about the GI50 (DU-145) of the same molecule?
A: > 100 µM (inactive)

Q: And the GI50 (UO-31)?
A: > 100 µM (inactive)

Q: And the GI50 (COLO 205)?
A: 38 µM (inactive)

Q: What about the GI50 (BT-549) of the same molecule?
A: > 100 µM (inactive)

Q: And the GI50 (SK-OV-3)?
A: > 100 µM (inactive)

Q: And the GI50 (M14)?
A: 55.5 µM (inactive)

Q: And the GI50 (SF-268)?
A: > 100 µM (inactive)

Q: And the GI50 (TK-10)?
A: > 100 µM (inactive)

Q: And the GI50 (SF-539)?
A: > 100 µM (inactive)

Q: And the GI50 (SF-295)?
A: > 100 µM (inactive)

Q: What about the GI50 (MDA-N) of the same molecule?
A: > 100 µM (inactive)

Q: What about the GI50 (CCRF-CEM) of the same molecule?
A: 5.37 µM (inactive)

Q: And the GI50 (EKVX)?
A: > 100 µM (inactive)

Q: And the GI50 (UACC-257)?
A: > 100 µM (inactive)

Q: What about the GI50 (MOLT-4) of the same molecule?
A: 4.58 µM (inactive)

Q: And the GI50 (786-0)?
A: > 100 µM (inactive)

Q: And the GI50 (MCF7)?
A: 57.1 µM (inactive)

Q: And the GI50 (NCI-H460)?
A: > 100 µM (inactive)

Q: And the GI50 (NCI/ADR-RES)?
A: > 100 µM (inactive)

Q: What about the GI50 (CAKI-1) of the same molecule?
A: > 100 µM (inactive)

Q: And the GI50 (Hs-578T)?
A: > 28.8 µM (inactive)

Q: And the GI50 (RXF 393)?
A: 7.66 µM (inactive)

Q: And the GI50 (ACHN)?
A: > 100 µM (inactive)

Q: What about the GI50 (NCI-H226) of the same molecule?
A: > 100 µM (inactive)

Q: What about the GI50 (HCC 2998) of the same molecule?
A: 50.5 µM (inactive)

Q: And the GI50 (HOP-62)?
A: > 100 µM (inactive)

Q: And the GI50 (OVCAR-3)?
A: > 100 µM (inactive)

Q: And the GI50 (MDA-MB-435)?
A: > 100 µM (inactive)

Q: What about the GI50 (OVCAR-5) of the same molecule?
A: > 100 µM (inactive)

Q: And the GI50 (HCT-15)?
A: > 100 µM

Q: And the GI50 (K562)?
A: > 73.8 µM (inactive)

Q: What about the GI50 (MDA-MB-231) of the same molecule?
A: > 100 µM (inactive)

Q: And the GI50 (SR)?
A: 23.7 µM (inactive)

Q: What about the GI50 (OVCAR-4) of the same molecule?
A: > 100 µM (inactive)

Q: And the GI50 (UACC-62)?
A: > 100 µM (inactive)

Q: And the GI50 (A549)?
A: 79.8 µM (inactive)

Q: What about the GI50 (HL-60) of the same molecule?
A: 2.49 µM (inactive)

Q: What about the GI50 (RPMI-8226) of the same molecule?
A: 34 µM (inactive)

Q: What about the GI50 (IGROV-1) of the same molecule?
A: 14.9 µM (inactive)
